Reference: patent US12577201B2, “Glutamine analogs” (Jacobio Pharmaceuticals Co., Ltd., priority 2020, dated 2026)

How the values were obtained:
[1] = Plasma stability, dog plasma; type: in vitro ADME; settings: 1 μM, 37° C., 4 hours
Experimental: (§1) For metabolic stability, plasma from dog, monkey, swine and human were used. For stability, prodrugs (1 μM) were spiked in respective solutions and incubated in an orbital shaker at 37° C. 50 μL aliquots of the mixture in duplicate were removed, and the reaction quenched by addition of four times the volume of ice cold acetonitrile spiked with the internal standard (Dexamethasone 100 ng/mL). The samples were vortexed for 30 s and centrifuged at 15000 g for 5 min. 100 μL of the supernatant was diluted with 100 μL of water and transferred to the 0.6 mL plastic tubes on 96-well plate. Prodrug disappearance was monitored over time using a liquid chromatography and tandem mass spectrometry (LC-MS/MS).
(§2) For LC-MS/MS, prodrugs were analyzed on a ExionLC AD HPLC system coupled to REF Triple Quad 5500+ mass spectrometer with an ESI interface on an Phenomenex Kinetex 5 m C18 100A (2.1*50) mm UPLC column. The autosampler was temperature controlled and was operated at 4° C. The mobile phase used for the chromatographic separation was composed of acetonitrile/water containing 0.10% formic acid and will run at a flow rate of 0.6 mL/min for 3.5 min using gradient elution. The column effluent was monitored using […], equipped with an electrospray probe set in the positive ionization mode. Samples were introduced into the ionization source through a heated nebulized probe (400° C.). Disappearance of prodrugs will be measured from ratio of peak areas of analyte to IS.
(§3) For quantification of compound remaining, disappearance of prodrugs was measured from ratio of peak areas of analyte to IS.

[2] = Plasma stability, monkey plasma; settings: 1 μM, 37° C., 4 hours
Experimental: as §1, with “The samples were vortexed for 30 s and centrifuged at 15000 g for 5 min.” left out
as §2, §3

[3] = Plasma stability, swine plasma; settings: 1 μM, 37° C., 4 hours
Experimental: as §1, with “The samples were vortexed for 30 s and centrifuged at 15000 g for 5 min.” left out
as §2, §3

[4] = Plasma stability, human plasma; settings: 1 μM, 37° C., 4 hours
Experimental: as §1, with “The samples were vortexed for 30 s and centrifuged at 15000 g for 5 min.” left out
as §2, §3

[5] = Stability in liver microsomes, monkey; type: in vitro ADME; settings: 60 minutes, read-out: In vitro Clint
Experimental: (§4) For metabolic stability, microsomes from human, monkey, dog, rat and mouse were used. For stability, prodrugs (1 μM) were spiked in each microsomes matrix and incubated in an orbital shaker at 37° C. Aliquots of 50 μL were taken from the reaction solution at 0, 15, 30, 45 and 60 min. The reaction was stopped by the addition of 4 volumes of cold acetonitrile with IS (100 nM alprazolam, 200 nM labetalol, 200 nM caffeine and 2 μM ketoprofen). Samples were centrifuged at 3, 220 g for 40 minutes. Aliquot of 100 μL of the supernatant was mixed with 100 μL of ultra-pure H2O and then used for LC-MS/MS analysis.
(§5) For LC-MS/MS, prodrugs were analyzed on an API 4000 instrument from AB Inc (Canada) with an ESI interface coupled to Shimadzu LC system on an Waters XSelect HSS T3 C18, 2.5 m, 2.1×30 mm column.
(§6) For data analysis, peak areas were determined from extracted ion chromatograms. The slope value, k, was determined by linear regression of the natural logarithm of the remaining percentage of the parent drug vs. incubation time curve. The in vitro half-life (in vitro t1/2) was determined from the slope value: in vitro t1/2=−(0.693/k)
(§7) Conversion of the in vitro t1/2 (min) into the in vitro intrinsic clearance (in vitro CLint, in μL/min/mg protein) was done using the following equation (mean of duplicate determinations): […]

[6] = Stability in liver microsomes, dog; type: in vitro ADME; settings: 60 minutes, read-out: In vitro Clint
Experimental: as §4, §5, §6, §7

[7] = Stability in liver microsomes, rat; type: in vitro ADME; settings: 60 minutes, read-out: In vitro Clint
Experimental: as §4, §5, §6, §7

MC38 tumor cells = assay: Anti-tumor efficacy in MC38 syngeneics in C57BL/6 mouse (Example 9); type: in vivo; settings: C57BL/6, MC38, 2 μmol/kg S.C. QD; for T/C (%) / TGI (%) / TV (mm^3) (Mean ± SEM) D21 / TV (mm^3) at D21 (Mean ± SEM): D21; for TV (mm^3) at D21 (Mean ± SEM): Table 5
Experimental: Animal species: Mus musculus; Strain: C57BL/6; Age: 6-8 weeks; Sex: female.
The MC38 tumor cells were maintained in vitro in DMEM medium supplemented with 10% FBS at 37° C., 5% CO2. The cells growing in an exponential growth phase were harvested and counted for tumor inoculation. The culture MC38 were harvested, re-suspended in PBS containing 50% Matrigel at a density of 1×10^7 cells/mL. Each mouse was inoculated subcutaneously in the right flank region with 1×10^6 cells in 0.1 mL of PBS containing 50% Matrigel for tumor development.
The treatments were started when the mean tumor size reached 79-118 mm^3 (average tumor size 96 mm^3). Each group contained 8 tumor bearing mice. Group 1 was treated with Vehicle (10% DMSO+90% Saline), S.C., QD.
(§8) In vivo efficacy was examined according to absolute tumor growth inhibition (TGI) and the safety was evaluated according to weight change and survival in mice.
Statistical analysis of difference in tumor volume among the groups was performed using one-way ANOVA followed by individual comparisons using Games-Howell post-hoc test (equal variance not assumed). All data was analyzed using SPSS 22.0 software.

[8] = Body weight of C57BL/6 mice bearing MC38 tumors (Example 9); type: in vivo, Mus musculus; settings: C57BL/6, MC38, 2 μmol/kg S.C. QD
Experimental: The treatments were started when the mean tumor size reached 79-118 mm^3 (average tumor size 96 mm^3). Each group contained 8 tumor bearing mice. Group 1 was treated with Vehicle (10% DMSO+90% Saline), S.C., QD. Group 2 was given treatments with reference compound A at 2 μmol/kg, S.C., QD. Group 3 was given treatments with compound 2 at 2 μmol/kg, S.C., QD.
as §8

[9] = Body weight of CES1c -/- mice bearing MC38 tumors (Example 10); type: in vivo; settings: CES1c -/- mouse, MC38, 2 μmol/kg S.C. QD; for BW Change (%): D6 to D26
Experimental: The treatments were started when the mean tumor size reached 52-132 mm^3 (average tumor size 95 mm^3). Each group contained 5 tumor bearing mice. Group 1 was treated with Vehicle (10% DMSO+90% Saline), S.C., QD(Subcutaneous injection, quaque die). Group 2 was given treatments with reference compound A at 2 μmol/kg, S.C., QD. Group 3 was given treatments with compound 2 at 2 μmol/kg, S.C., QD.
as §8

Row | SMILES | plasma stability (compound remaining) [1] | plasma stability (compound remaining) [2] | plasma stability (compound remaining) [3] | plasma stability (compound remaining) [4] | microsomal CLint at 1 μM [5] [µL/min/mg] | microsomal CLint at 1 μM [6] [µL/min/mg] | microsomal CLint at 1 μM [7] [µL/min/mg] | TV (mm^3) (Mean ± SEM) D6 (MC38 tumor cells) | TV (mm^3) (Mean ± SEM) D10 (MC38 tumor cells) | TV (mm^3) (Mean ± SEM) D14 (MC38 tumor cells) | TV (mm^3) (Mean ± SEM) D18 (MC38 tumor cells) | T/C (%) (MC38 tumor cells) | TGI (%) (MC38 tumor cells) | TV (mm^3) (Mean ± SEM) D21 (MC38 tumor cells) | TV (mm^3) (Mean ± SEM) D25 (MC38 tumor cells) | TV (mm^3) (Mean ± SEM) D28 (MC38 tumor cells) | TV (mm^3) (Mean ± SEM) D31 (MC38 tumor cells) | TV (mm^3) at D21 (Mean ± SEM) (MC38 tumor cells) [mm^3] | BW(g) (Mean ± SEM) Beginning (D6) [8] | BW(g) (Mean ± SEM) End (D21) [8] | other results
1 | CO[C@@H](C)C(=O)N[C@@H](CCC(=O)C=[N+]=[N-])C(=O)OC(C)C [Compound 2, isopropyl (S)-6-diazo-2-((S)-2-methoxypropanamido)-5-oxohexanoate] | substantially intact | substantially intact | substantially intact | substantially intact | 31.8 | 12.7 | 62.4 | 96 ± 4 | 141 ± 9 | 140 ± 10 | 180 ± 13 | 9.5 | 90.5 | 263 ± 32 | 381 ± 55 | 496 ± 62 | 617 ± 56 | 263 ± 32 | 21.7 ± 0.2 | 22.4 ± 0.2 | tolerability / body weight loss [9]: well-tolerated; BW(g) (Mean ± SEM) Beginning (D6) [9]: 19.1 ± 0.3 g; BW Change (%) [9]: +2.4%; BW(g) (Mean ± SEM) End (D26) [9]: 19.5 ± 0.3 g
2 | CC(=O)N[C@@H](Cc1c[nH]c2ccccc12)C(=O)N[C@@H](CCC(=O)C=[N+]=[N-])C(=O)OC(C)C [Reference compound A, reference compound] | substantially intact | substantially intact | substantially intact | substantially intact | 393 | 60.4 | 95.2 | 96 ± 4 | 148 ± 6 | 196 ± 25 | 297 ± 48 | 14.4 | 85.6 | 399 ± 74 | 680 ± 143 | 928 ± 153 | 1358 ± 213 | 399 ± 74 | 21.9 ± 0.3 | 22.5 ± 0.4 | BW Change (%) ([8]; D6 to D21): +2.8%; tolerability / body weight loss [9]: some body weight loss; BW(g) (Mean ± SEM) Beginning (D6) [9]: 19.2 ± 0.2 g; BW Change (%) [9]: −8.3%; BW(g) (Mean ± SEM) End (D26) [9]: 17.6 ± 0.9 g
